Source: the kinase profiling compilation of Christmann-Franck et al. (2016)

What was measured:
Test in all cases: KINOMEscan competition binding
Settings in all cases: compound 10.0 µM
PRKACB (human) = PRKACB (human) (UniProt P22694)
ACVRL1 (human) = ACVRL1 (human) (UniProt P37023)
FLT1 (human) = FLT1 (human) (UniProt P17948)
NTRK3 (human) = NTRK3 (human) (UniProt Q16288)
PRKCQ (human) = PRKCQ (human) (UniProt Q04759)
PTK6 (human) = PTK6 (human) (UniProt Q13882)
CHEK1 (human) = CHEK1 (human) (UniProt O14757)
CDK8 (human) = CDK8 (human) (UniProt P49336)
LIMK1 (human) = LIMK1 (human) (UniProt P53667)
CSNK1G2 (human) = CSNK1G2 (human) (UniProt P78368)
PRKCE (human) = PRKCE (human) (UniProt Q02156)
BMX (human) = BMX (human) (UniProt P51813)
STK4 (human) = STK4 (human) (UniProt Q13043)
PLK1 (human) = PLK1 (human) (UniProt P53350)
MAPK11 (human) = MAPK11 (human) (UniProt Q15759)
LTK (human) = LTK (human) (UniProt P29376)
RPS6KA1 KD1 (human) = RPS6KA1 KD1 (human) (UniProt Q15418)
FES (human) = FES (human) (UniProt P07332)
CSK (human) = CSK (human) (UniProt P41240)
MAP3K4 (human) = MAP3K4 (human) (UniProt Q9Y6R4)
MAP2K6 (human) = MAP2K6 (human) (UniProt P52564)
CDK15 (human) = CDK15 (human) (UniProt Q96Q40)
PIK3CB (human) = PIK3CB (human) (UniProt P42338)
SRPK1 (human) = SRPK1 (human) (UniProt Q96SB4)
LCK (human) = LCK (human) (UniProt P06239)
CDK2 (human) = CDK2 (human) (UniProt P24941)
PHKG1 (human) = PHKG1 (human) (UniProt Q16816)
ERBB4 (human) = ERBB4 (human) (UniProt Q15303)
ABL1 (human) = ABL1 (human) (UniProt P00519)
RPS6KA4 KD1 (human) = RPS6KA4 KD1 (human) (UniProt O75676)
CAMK1G (human) = CAMK1G (human) (UniProt Q96NX5)
FYN (human) = FYN (human) (UniProt P06241)
TGFBR1 (human) = TGFBR1 (human) (UniProt P36897)
MAP3K3 (human) = MAP3K3 (human) (UniProt Q99759)
SRMS (human) = SRMS (human) (UniProt Q9H3Y6)
MERTK (human) = MERTK (human) (UniProt Q12866)
NUAK1 (human) = NUAK1 (human) (UniProt O60285)
SIK2 (human) = SIK2 (human) (UniProt Q9H0K1)
STK32C (human) = STK32C (human) (UniProt Q86UX6)
RIPK1 (human) = RIPK1 (human) (UniProt Q13546)
CDK14 (human) = CDK14 (human) (UniProt O94921)
TESK1 (human) = TESK1 (human) (UniProt Q15569)

PIK3CB (human), sequence (P42338 whole entry, looked up): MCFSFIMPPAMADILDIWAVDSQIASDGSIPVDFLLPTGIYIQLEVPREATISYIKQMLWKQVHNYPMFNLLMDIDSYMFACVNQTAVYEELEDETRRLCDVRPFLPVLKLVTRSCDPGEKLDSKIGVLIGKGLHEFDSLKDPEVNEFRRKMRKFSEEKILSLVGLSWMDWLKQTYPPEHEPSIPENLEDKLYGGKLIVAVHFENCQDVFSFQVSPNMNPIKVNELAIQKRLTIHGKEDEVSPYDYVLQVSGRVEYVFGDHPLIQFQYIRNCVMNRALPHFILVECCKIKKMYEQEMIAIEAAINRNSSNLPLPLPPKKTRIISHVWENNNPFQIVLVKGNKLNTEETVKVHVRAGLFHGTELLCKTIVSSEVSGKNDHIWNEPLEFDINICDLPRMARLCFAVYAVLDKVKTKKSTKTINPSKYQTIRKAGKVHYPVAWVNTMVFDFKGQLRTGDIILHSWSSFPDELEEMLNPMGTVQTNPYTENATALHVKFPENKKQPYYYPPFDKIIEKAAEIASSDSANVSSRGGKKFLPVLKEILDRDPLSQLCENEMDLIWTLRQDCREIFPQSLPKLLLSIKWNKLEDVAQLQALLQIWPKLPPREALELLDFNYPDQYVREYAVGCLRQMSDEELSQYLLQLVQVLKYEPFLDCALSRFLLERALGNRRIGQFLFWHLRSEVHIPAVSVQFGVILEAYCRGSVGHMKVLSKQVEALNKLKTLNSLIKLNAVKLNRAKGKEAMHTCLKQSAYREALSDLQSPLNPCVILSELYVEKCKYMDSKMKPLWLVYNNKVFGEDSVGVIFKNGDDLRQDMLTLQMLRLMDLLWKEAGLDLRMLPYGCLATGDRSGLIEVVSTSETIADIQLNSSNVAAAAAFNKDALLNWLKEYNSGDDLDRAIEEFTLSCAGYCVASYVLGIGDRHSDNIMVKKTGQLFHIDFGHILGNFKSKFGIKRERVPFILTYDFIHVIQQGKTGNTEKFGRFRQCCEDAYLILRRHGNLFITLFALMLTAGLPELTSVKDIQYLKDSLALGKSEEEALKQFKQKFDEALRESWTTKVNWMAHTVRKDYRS
ERBB4 (human), sequence (Q15303 whole entry, looked up): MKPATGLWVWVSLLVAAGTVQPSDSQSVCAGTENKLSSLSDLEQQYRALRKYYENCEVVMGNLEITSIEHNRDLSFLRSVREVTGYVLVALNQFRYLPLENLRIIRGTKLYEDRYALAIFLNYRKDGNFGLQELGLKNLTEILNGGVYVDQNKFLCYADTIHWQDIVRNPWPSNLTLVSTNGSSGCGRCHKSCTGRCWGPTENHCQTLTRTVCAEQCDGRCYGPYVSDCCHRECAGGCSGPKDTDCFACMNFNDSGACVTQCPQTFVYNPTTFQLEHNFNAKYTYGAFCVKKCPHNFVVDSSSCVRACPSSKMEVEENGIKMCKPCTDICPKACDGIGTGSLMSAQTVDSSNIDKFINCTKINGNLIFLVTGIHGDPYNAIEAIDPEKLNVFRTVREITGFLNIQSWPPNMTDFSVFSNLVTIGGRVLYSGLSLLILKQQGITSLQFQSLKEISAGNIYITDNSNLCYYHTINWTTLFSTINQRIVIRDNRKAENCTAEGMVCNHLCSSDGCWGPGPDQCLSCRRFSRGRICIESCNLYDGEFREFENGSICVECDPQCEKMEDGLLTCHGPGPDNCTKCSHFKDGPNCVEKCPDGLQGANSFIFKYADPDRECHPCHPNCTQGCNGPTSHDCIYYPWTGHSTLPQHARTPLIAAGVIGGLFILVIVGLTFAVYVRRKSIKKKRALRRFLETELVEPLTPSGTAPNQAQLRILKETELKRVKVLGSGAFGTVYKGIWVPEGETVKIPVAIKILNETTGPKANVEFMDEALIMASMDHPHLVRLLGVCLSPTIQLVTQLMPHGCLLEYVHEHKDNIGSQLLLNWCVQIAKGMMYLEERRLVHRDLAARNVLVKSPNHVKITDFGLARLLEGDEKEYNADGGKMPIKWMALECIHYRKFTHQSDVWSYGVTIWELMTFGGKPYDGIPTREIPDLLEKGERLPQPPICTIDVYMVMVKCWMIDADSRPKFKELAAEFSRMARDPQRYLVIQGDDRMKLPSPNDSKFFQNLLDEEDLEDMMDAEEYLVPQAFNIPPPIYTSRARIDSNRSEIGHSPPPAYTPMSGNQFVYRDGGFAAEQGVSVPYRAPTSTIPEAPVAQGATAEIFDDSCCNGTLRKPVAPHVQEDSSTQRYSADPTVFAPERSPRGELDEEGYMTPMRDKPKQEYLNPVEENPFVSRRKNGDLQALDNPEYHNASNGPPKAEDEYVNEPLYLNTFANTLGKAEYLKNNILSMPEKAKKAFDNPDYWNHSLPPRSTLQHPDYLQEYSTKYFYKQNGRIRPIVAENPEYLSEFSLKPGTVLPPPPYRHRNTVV
CDK15 (human), sequence (Q96Q40 whole entry, looked up): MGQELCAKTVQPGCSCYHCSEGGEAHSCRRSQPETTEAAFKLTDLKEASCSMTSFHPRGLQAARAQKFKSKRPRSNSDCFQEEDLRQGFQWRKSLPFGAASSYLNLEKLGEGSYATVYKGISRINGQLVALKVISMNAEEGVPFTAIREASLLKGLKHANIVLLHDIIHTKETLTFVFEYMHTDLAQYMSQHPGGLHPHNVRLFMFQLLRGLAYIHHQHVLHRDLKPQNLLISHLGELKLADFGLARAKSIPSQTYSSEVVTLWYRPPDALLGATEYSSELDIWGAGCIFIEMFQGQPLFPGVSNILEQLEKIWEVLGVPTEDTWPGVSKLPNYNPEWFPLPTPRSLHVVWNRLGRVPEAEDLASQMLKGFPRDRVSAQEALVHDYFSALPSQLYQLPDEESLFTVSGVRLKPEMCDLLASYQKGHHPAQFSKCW
PHKG1 (human), sequence (Q16816 whole entry, looked up): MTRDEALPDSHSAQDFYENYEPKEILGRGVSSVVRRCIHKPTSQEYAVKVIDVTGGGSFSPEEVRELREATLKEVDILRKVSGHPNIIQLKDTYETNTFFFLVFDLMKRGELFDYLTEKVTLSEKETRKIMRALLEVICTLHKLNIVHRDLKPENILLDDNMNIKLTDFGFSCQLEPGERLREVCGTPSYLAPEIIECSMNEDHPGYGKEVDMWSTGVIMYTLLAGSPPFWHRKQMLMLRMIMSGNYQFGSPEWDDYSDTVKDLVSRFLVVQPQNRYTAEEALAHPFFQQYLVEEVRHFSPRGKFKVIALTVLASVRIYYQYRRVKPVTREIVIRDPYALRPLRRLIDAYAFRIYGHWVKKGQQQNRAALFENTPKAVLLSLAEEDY
LTK (human), sequence (P29376 whole entry, looked up): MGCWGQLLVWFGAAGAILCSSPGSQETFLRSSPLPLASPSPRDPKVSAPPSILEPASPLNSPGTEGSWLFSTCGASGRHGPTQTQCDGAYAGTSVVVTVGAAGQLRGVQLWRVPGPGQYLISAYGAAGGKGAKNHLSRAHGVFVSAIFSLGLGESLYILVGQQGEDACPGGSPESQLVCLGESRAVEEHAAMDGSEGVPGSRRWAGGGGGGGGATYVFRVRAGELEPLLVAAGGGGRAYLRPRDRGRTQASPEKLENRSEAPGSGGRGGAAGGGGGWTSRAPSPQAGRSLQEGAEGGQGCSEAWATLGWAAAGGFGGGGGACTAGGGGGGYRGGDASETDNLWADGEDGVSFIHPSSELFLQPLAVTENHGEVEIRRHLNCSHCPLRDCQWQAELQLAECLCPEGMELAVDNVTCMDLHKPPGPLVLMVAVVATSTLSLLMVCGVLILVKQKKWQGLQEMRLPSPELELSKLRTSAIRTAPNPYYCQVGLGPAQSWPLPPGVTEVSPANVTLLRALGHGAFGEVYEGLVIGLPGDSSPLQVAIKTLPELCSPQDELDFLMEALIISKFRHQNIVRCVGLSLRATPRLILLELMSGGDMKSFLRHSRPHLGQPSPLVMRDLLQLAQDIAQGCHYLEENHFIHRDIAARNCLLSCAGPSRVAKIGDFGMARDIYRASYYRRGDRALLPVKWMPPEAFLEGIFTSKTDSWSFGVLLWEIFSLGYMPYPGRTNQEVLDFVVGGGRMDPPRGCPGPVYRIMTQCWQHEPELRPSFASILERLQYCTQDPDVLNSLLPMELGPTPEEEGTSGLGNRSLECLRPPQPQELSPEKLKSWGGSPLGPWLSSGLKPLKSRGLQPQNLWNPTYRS
PTK6 (human), sequence (Q13882 whole entry, looked up): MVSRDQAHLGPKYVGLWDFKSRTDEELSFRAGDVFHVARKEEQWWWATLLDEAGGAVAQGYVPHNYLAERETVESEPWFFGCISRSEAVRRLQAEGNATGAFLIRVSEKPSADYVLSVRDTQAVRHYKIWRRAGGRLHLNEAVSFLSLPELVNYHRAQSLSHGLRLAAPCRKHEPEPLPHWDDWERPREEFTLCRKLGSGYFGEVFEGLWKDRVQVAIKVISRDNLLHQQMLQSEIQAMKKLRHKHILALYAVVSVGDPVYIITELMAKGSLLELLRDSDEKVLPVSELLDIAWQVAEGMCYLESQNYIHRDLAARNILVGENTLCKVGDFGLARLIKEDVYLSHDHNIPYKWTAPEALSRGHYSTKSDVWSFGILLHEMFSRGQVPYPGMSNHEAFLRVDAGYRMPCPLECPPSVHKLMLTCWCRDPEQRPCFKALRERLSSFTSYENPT
TGFBR1 (human), sequence (P36897 whole entry, looked up): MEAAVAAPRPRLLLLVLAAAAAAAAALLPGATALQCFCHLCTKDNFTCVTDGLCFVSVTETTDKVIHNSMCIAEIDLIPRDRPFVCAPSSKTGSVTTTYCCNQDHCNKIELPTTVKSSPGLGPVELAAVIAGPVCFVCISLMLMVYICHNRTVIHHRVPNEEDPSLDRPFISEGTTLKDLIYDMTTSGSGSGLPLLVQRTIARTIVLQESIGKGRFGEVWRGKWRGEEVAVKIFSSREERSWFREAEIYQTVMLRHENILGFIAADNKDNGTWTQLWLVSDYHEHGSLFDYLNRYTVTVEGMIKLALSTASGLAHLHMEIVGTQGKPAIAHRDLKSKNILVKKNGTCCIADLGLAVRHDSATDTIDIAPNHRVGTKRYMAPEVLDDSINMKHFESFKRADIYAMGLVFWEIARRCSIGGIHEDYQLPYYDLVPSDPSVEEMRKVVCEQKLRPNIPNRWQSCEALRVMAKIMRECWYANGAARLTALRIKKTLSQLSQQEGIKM

CN1C(=O)c2ccccc2N(C)c2nc(NS(=O)(=O)c3ccc(N)cc3)ncc21
kinase still bound, per cent of control (PRKACB (human)): 100% | kinase still bound, per cent of control (ACVRL1 (human)): 100% | kinase still bound, per cent of control (FLT1 (human)): 100% | kinase still bound, per cent of control (NTRK3 (human)): 72% | kinase still bound, per cent of control (PRKCQ (human)): 100% | kinase still bound, per cent of control (PTK6 (human)): 100% | kinase still bound, per cent of control (CHEK1 (human)): 98% | kinase still bound, per cent of control (CDK8 (human)): 100% | kinase still bound, per cent of control (LIMK1 (human)): 100% | kinase still bound, per cent of control (CSNK1G2 (human)): 100% | kinase still bound, per cent of control (PRKCE (human)): 100% | kinase still bound, per cent of control (BMX (human)): 100% | kinase still bound, per cent of control (STK4 (human)): 71% | kinase still bound, per cent of control (PLK1 (human)): 100% | kinase still bound, per cent of control (MAPK11 (human)): 100% | kinase still bound, per cent of control (LTK (human)): 82% | kinase still bound, per cent of control (RPS6KA1 KD1 (human)): 100% | kinase still bound, per cent of control (FES (human)): 90% | kinase still bound, per cent of control (CSK (human)): 100% | kinase still bound, per cent of control (MAP3K4 (human)): 85% | kinase still bound, per cent of control (MAP2K6 (human)): 100% | kinase still bound, per cent of control (CDK15 (human)): 100% | kinase still bound, per cent of control (PIK3CB (human)): 100% | kinase still bound, per cent of control (SRPK1 (human)): 100% | kinase still bound, per cent of control (LCK (human)): 100% | kinase still bound, per cent of control (CDK2 (human)): 100% | kinase still bound, per cent of control (PHKG1 (human)): 100% | kinase still bound, per cent of control (ERBB4 (human)): 100% | kinase still bound, per cent of control (ABL1 (human)): 99% | kinase still bound, per cent of control (RPS6KA4 KD1 (human)): 100% | kinase still bound, per cent of control (CAMK1G (human)): 100% | kinase still bound, per cent of control (FYN (human)): 100% | kinase still bound, per cent of control (TGFBR1 (human)): 100% | kinase still bound, per cent of control (MAP3K3 (human)): 100% | kinase still bound, per cent of control (SRMS (human)): 84% | kinase still bound, per cent of control (MERTK (human)): 82% | kinase still bound, per cent of control (NUAK1 (human)): 86% | kinase still bound, per cent of control (SIK2 (human)): 89% | kinase still bound, per cent of control (STK32C (human)): 100% | kinase still bound, per cent of control (RIPK1 (human)): 100% | kinase still bound, per cent of control (CDK14 (human)): 100% | kinase still bound, per cent of control (TESK1 (human)): 100%
